Values of other authors, collected in patent US11660346B2, “Engineered microparticles for macromolecule delivery” (University of Pittsburgh-Of the Commonwealth System of …, priority 2009, dated 2023).

Settings: parameter for polyanhydride disk prediction, FIG. 10

- CAmx (maximum solubility of agent) (aqueous): 2.184 mol/m^3
- kdis (intrinsic dissolution rate constant): 0.046 mol/m^3 s
Compound: CCCCN1CCCCC1C(=O)Nc1c(C)cccc1C (centres unmarked) [bupivacaine]
